Earlier results, collected in PMC7904233 (Journal of medicinal chemistry, 2020).

Test system: EBOV Zaire
Details: in vivo; cited from earlier work

| Compound | mouse survival [%] |
| --- | --- |
| CN(C)CCOc1ccc(/C(=C(/CCCl)c2ccccc2)c2ccccc2)cc1 [Compound 1, Toremifene] | 50 |
| CCN(CC)CCOc1ccc(C(=C(Cl)c2ccccc2)c2ccccc2)cc1 [clomiphene] | 90 |
